Measured values reported in patent publication US9777123B2, “Sulfated beta-O4 low molecular weight lignins” (VIRGINIA COMMONWEALTH UNIVERSITY, priority 2013, dated 2017).

Target: T1, SbO4L-thrombin complex (Homo sapiens, UniProt P00734)
T1 construct: purchased Haematologic Technologies, Sigma-Aldrich or Elastin Products Company (not assigned per protease)
Experiment: Protamine-mediated reversal of SbO4L inhibition of thrombin
Assay type: biochemical
Procedure: FIG. 8. Protamine-mediated reversal of SbO4L inhibition of thrombin. Recovery of thrombin activity at varying levels of protamine following 50% inhibition by SbO4L was measured through the Spectrozyme TH hydrolysis assay at pH 7.4. Solid line represents non-linear fit of the data by a logistic function similar to equation 1 to obtain the RC50, the concentration of protamine necessary to recover 50% thrombin activity.
A major advantage of heparin therapy is its amenability to protamine-based reversal. It is also one of the reasons why fondaparinux continues to suffer because its iatrogenic bleeding is difficult to reverse rapidly. To test whether SbO4L inhibition of thrombin can be reversed, we studied the recovery of thrombin activity following successive introduction of protamine. […] The protamine-mediated recovery profile essentially mirrors the SbO4L-induced inhibition profile. More importantly, the level of recovery is quantitative at high enough protamine concentrations. Further, the recovery was instantaneous as no extended incubation was necessary to observe reversal. The concentration of protamine necessary to recover 50% thrombin activity, i.e., RC50, could be calculated using an equation similar to the logistic equation 1 used for inhibition studies and found to be ˜0.1 μg/ml, […] for SbO4L inhibition of thrombin.

protamine
RC50 relative to IC50 (fold higher): 5 fold | RC50, concentration of protamine necessary to recover 50% thrombin activity (after 50% inhibition by SbO4L, pH 7.4, 37° C.): ~0.1 µg/mL | thrombin activity restored (chromogenic test systems): 100% | effect of protamine alone on thrombin activity (controls without SbO4L): did not affect the activity of thrombin
